Measurements from patent publication US11147854B2, “Peptides having immunomodulatory properties” (Riptide Bioscience, Inc., priority 2018, dated 2021).

How the values were obtained:
[1] = system: macrophages from scleroderma patients; experiment: Viability of peripheral blood derived macrophages from scleroderma patients (PrestoBlue assay); format: cell-based, human; settings: for macrophage viability: scleroderma (SSc) patient with raised arginase:IFNg ratio of 8.8, even at 0.01 uM, 96 hours, PrestoBlue; for effect on scleroderma macrophage samples (high arginase:IFNg) versus healthy control samples (low arginase:IFNg) (FIG. 4A-4B): FIG. 4B versus FIG. 4A; for viability of macrophages (FIG. 3): samples from human scleroderma patients, 96 hours incubation, various concentrations
Procedure: (§1) Peripheral blood derived macrophages were cultured from healthy volunteers and scleroderma patients and cultured in MCS-F for 7 days prior to qPCR for arginasel (M2 marker) or IFNg (M1 marker), followed by treatment with RP peptides at a range of doses 0-100 uM. After 48 hours media were exchanged and cells were retreated with the peptides. After 96 hours cell viability was assayed by PrestoBlue assay. (FIG. 4A) Macrophages from a healthy control with low arginase:IFNg ratio of 3.6, were resistant to the effects of RP peptides of interest (RP182, RP185, RP832C, RP837) on viability.

[2] = system: macrophages from healthy controls; experiment: Viability of peripheral blood derived macrophages from healthy volunteers (PrestoBlue assay); format: cell-based, human; settings: healthy control with low arginase:IFNg ratio of 3.6, peptides 0-100 uM, 96 hours
Procedure: as §1

[3] = system: CT26 Xenograft; experiment: Mouse tumor inhibition model with and without anti-PD1 antibody (FIG. 2); format: in vivo; settings: peptide 10 mg/kg qd
Procedure: The peptides RP832C and RP185 were administered at 10 mg/kg qd. The anti-PD1 antibody was administered intraperitoneally at 200 ug twice per week.

Sequence	macrophage viability [1]	macrophage viability [2]	tumor volume [3]	effect on scleroderma macrophage samples (high arginase:IFNg) versus healthy control samples (low arginase:IFNg) (FIG. 4A-4B) [1]	viability of macrophages (FIG. 3) [1]
FFKKFFKKFK [RP185]	greatly reduced viability	resistant	reduce tumor volume	–	–
KFRKAFKRFF [RP182]	greatly reduced viability	resistant	–	–	–
FWKRFVRKWR [RP837]	greatly reduced viability	resistant	–	selective effect	reduce viability
RWKFGGFKWR [RP832C]	greatly reduced viability	resistant	reduce tumor volume	selective effect	reduce viability
